Data taken from patent publication US5654308A (priority 1990, dated 1997).
Where a name gives a salt, the structure may show the parent alone.

The molecules below were run against T1, acetylcholine esterase (Mus musculus, UniProt P21836) (assay: biochemical). Conditions: not given.
T1 construct: using a mouse brain homogenate as the acetylcholine esterase source; from tissue; host or cells: mouse brain homogenate
T1 sequence (P21836 32-614): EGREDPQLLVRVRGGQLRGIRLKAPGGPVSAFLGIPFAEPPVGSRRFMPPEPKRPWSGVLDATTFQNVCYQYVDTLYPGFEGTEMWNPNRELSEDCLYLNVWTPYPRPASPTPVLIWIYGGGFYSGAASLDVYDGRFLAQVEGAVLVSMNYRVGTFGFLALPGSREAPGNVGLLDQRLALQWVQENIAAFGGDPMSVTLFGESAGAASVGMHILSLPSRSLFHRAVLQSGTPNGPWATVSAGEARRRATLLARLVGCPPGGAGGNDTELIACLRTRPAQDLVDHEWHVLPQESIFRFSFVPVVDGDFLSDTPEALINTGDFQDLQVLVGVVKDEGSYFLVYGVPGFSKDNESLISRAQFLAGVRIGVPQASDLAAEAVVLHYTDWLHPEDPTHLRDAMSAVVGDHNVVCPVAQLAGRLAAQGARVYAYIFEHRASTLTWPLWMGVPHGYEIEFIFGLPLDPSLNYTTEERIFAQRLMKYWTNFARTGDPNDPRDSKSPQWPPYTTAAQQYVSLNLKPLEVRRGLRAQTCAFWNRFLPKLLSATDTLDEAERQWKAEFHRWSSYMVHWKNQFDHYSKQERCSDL

Question: With `Nc1ccc2c(c1)CN(CCC1CCN(Cc3ccccc3)CC1)C(=O)O2` [Example 35] as the molecule, how does the IC50 read?
Answer: 1.85 nM

Question: How did the IC50 turn out when `CC1(O)c2nccnc2C(=O)N1CCC1CCN(Cc2ccccc2)CC1` (centres unmarked) [Example 11, 1-[2-{4-[(1-Benzyl)piperidyl]}ethyl]-7-hydroxy-7-methylpiperazino[2,3-c]pyrrolidin-2-one] was run?
Answer: 99.6 nM

Question: Which IC50 does the source give for `O=C1Nc2ncccc2CN1CCC1CCN(CC2OCCO2)CC1` [Example 66] here?
Answer: 288 nM

Question: `COc1ccc2c(c1)CN(CCC1CCN(Cc3ccccc3)CC1)C(=O)O2` [Example 26] was tested. Which IC50 did it give?
Answer: 0.5 nM

Question: With `O=C1Oc2ccccc2CN1CCC1CCN(Cc2ccccc2)CC1` [Example 2, 3-[2-(1-Benzyl-4-piperidyl)ethyl]-2H-3,4-dihydro-1,3-benzoxazin-2-one hydrochloride] as the molecule, how does the IC50 read?
Answer: 4.94 nM

Question: With `COc1ccc2oc(=O)n(CCC3CCN(CC4OCCO4)CC3)c(=O)c2c1` [Example 7, 3-{2-[1-(1,3-Dioxolan-2-ylmethyl)-4-piperidyl]ethyl}-6-methoxy-2H-3,4-dihydro-1,3-benzoxazine-2,4-dione hydrochloride] as the molecule, how does the IC50 read?
Answer: 124 nM

Question: `Cc1ccc2oc(=O)n(CCC3CCN(Cc4ccccc4)CC3)c(=O)c2n1` [Example 64] was tested. Which IC50 did it give?
Answer: 9.11 nM

Question: Which IC50 does the source give for `O=C1Oc2ccc([N+](=O)[O-])cc2CN1CCC1CCN(Cc2ccncc2)CC1` [Example 34] here?
Answer: 13.8 nM

Question: With `O=c1[nH]c2ncccc2c(=O)n1CCC1CCN(Cc2ccncc2)CC1` [Example 71] as the molecule, how does the IC50 read?
Answer: 137 nM

Question: How did the IC50 turn out when `O=c1oc2ccc(F)cc2c(=O)n1CCC1CCN(CC2OCCO2)CC1` [Example 40] was run?
Answer: 1020 nM

Question: `COc1cccc2c1OC(=O)N(CCC1CCN(Cc3ccccc3)CC1)C2` [Example 25] was tested. Which IC50 did it give?
Answer: 2.74 nM

Question: `COc1ccc2c(c1)CN(CCC1CCN(CC3CCCC3)CC1)C(=O)O2` [Example 41] was tested. Which IC50 did it give?
Answer: 4.64 nM

Question: How did the IC50 turn out when `COc1ccc2c(c1)CN(CCC1CCN(Cc3cccc(F)c3)CC1)C(=O)O2` [Example 54] was run?
Answer: 0.34 nM

Question: Which IC50 does the source give for `O=C1Oc2c(Cl)cc(Cl)cc2CN1CCC1CCN(Cc2ccncc2)CC1` [Example 30] here?
Answer: 29.1 nM

Question: For `COc1ccc2oc(=O)n(CCC3CCN(CC4CCCCC4)CC3)c(=O)c2c1` [Example 43], which IC50 is on record?
Answer: 2.96 nM

Question: How did the IC50 turn out when `O=c1[nH]c2nccnc2c(=O)n1CCC1CCN(Cc2ccccc2)CC1` [Example 10, 3-[2-{4 [(1-Benzyl)piperidyl]}ethyl]pyrazino[2,3-d]-pyprimidine-2,4-dione fumarate] was run?
Answer: 31.8 nM

Question: For `O=C1Oc2ccc(Cl)cc2CN1CCC1CCN(Cc2ccccc2)CC1` [Example 32], which IC50 is on record?
Answer: 1.39 nM

Question: With `O=c1oc2ccccc2c(=O)n1CCC1CCN(Cc2ccccc2)CC1` [Example 3, 3-[2-(1-Benzyl-4-piperidyl)ethyl]-2H-3,4-dihydro-1,3-benzoxazine-2,4-dione hydrochloride] as the molecule, how does the IC50 read?
Answer: 8.52 nM

Question: Which IC50 does the source give for `Cc1ccc2c(n1)CN(CCC1CCN(Cc3ccccc3)CC1)C(=S)O2` [Example 9, 3-[2-(1-Benzyl-4-piperidyl)ethyl]-2H-3,4-dihydro-6-methylpyrido[2,3-d]-m-oxazine-2-thione hydrochloride] here?
Answer: 8.38 nM

Question: `C=C1c2nccnc2C(=O)N1CCC1CCN(Cc2ccccc2)CC1` [Example 12, 1-[2-{4-[(1-Benzyl)piperidyl]}ethyl]-7-methylenepiperazino[2,3-c]pyrrolidin-2-one fumarate] was tested. Which IC50 did it give?
Answer: 1.82 nM

Question: With `Cc1ccc2oc(=O)n(CCC3CCN(Cc4ccccc4)CC3)c(=O)c2c1` [Example 37] as the molecule, how does the IC50 read?
Answer: 2.97 nM

Question: With `CC(=O)Nc1ccc2c(c1)CN(CCC1CCN(Cc3ccccc3)CC1)C(=O)O2` [Example 36] as the molecule, how does the IC50 read?
Answer: 1.17 nM

Question: With `C=C1c2ccccc2C(=O)N1CCC1CCN(Cc2ccccc2)CC1` [Example 27] as the molecule, how does the IC50 read?
Answer: 45.4 nM

Question: How did the IC50 turn out when `COc1ccc2oc(=O)n(CCC3CCN(Cc4cccc(F)c4)CC3)c(=O)c2c1` [Example 53] was run?
Answer: 0.18 nM

Question: How did the IC50 turn out when `O=C1CC(Cc2ccccc2)CN1CCC1CCN(Cc2ccccc2)CC1` (centres unmarked) [Example 14, 1-[2-{(4-[(1-Benzyl)piperidyl]}ethyl]-4-benzylpyrrolidin-2-one hydrochloride] was run?
Answer: 23.8 nM

Question: With `COc1cccc2c1CN(CCC1CCN(CC3OCCO3)CC1)C(=O)O2` [Example 52] as the molecule, how does the IC50 read?
Answer: 64.9 nM

Question: How did the IC50 turn out when `COc1ccc2c(c1)CN(CCC1CCN(CC3CCCCC3)CC1)C(=O)O2` [Example 42] was run?
Answer: 3.92 nM

Question: Which IC50 does the source give for `O=C(c1ccccc1)C1CC(=O)N(C2CCN(Cc3ccccc3)CC2)C1` (centres unmarked) [Example 65] here?
Answer: 34000 nM

Question: With `O=C1Oc2ccc([N+](=O)[O-])cc2CN1CCC1CCN(Cc2ccccc2)CC1` [Example 31] as the molecule, how does the IC50 read?
Answer: 0.58 nM

Question: With `COc1cc(OC)c2c(c1)OC(=O)N(CCC1CCN(Cc3ccccc3)CC1)C2` [Example 28] as the molecule, how does the IC50 read?
Answer: 0.38 nM

Question: How did the IC50 turn out when `CCOc1ccc(C(=O)C2CC(=O)N(CCC3CCN(Cc4ccccc4)CC3)C2)cc1` (centres unmarked) [Example 75] was run?
Answer: 20.8 nM

Question: How did the IC50 turn out when `COc1ccc2c(c1)OC(=O)N(CCC1CCN(Cc3ccccc3)CC1)C2` [Example 24] was run?
Answer: 1.87 nM

Question: How did the IC50 turn out when `COc1ccc2oc(=O)n(CCC3CCN(CC4CCCC4)CC3)c(=O)c2c1` [Example 6, 3-[2-(1-Cyclopentylmethyl-4-piperidyl)-6-methoxy-ethyl]-2H-3,4-dihydro-1,3-benzoxazine-2,4-dione hydrochloride] was run?
Answer: 4.86 nM

Question: `COc1ccc2oc(=O)n(CCC3CCN(Cc4ccccc4)CC3)c(=O)c2c1` [Example 38] was tested. Which IC50 did it give?
Answer: 0.7 nM

Question: Which IC50 does the source give for `O=c1oc2ccc(F)cc2c(=O)n1CCC1CCN(Cc2ccccc2)CC1` [Example 39] here?
Answer: 7.79 nM

Question: How did the IC50 turn out when `CCOc1ccccc1C(=O)C1CC(=O)N(CCC2CCN(Cc3ccccc3)CC2)C1` (centres unmarked) [Example 74] was run?
Answer: 27.7 nM

Question: Which IC50 does the source give for `COc1ccc2oc(=O)n(CCC3CCN(Cc4ccoc4)CC3)c(=O)c2c1` [Example 46] here?
Answer: 11.4 nM

Question: How did the IC50 turn out when `COc1ccc2c(c1)CN(CCC1CCN(Cc3ccncc3)CC1)C(=O)O2` [Example 4, 3-{2-[1-(4-Pyridylmethyl)-4-piperidyl]ethyl}-6-methoxy-2H-3,4-dihydro-1,3-benzoxazin-2-one dihydrochloride] was run?
Answer: 7.93 nM

Question: How did the IC50 turn out when `COc1cccc2c1CN(CCC1CCN(Cc3ccccc3)CC1)C(=O)O2` [Example 1, 3-[2-(1-Benzyl-4-piperidyl)ethyl]-5-methoxy-2H-3,4-dihydro-1,3-benzoxazin-2-one hydrochloride] was run?
Answer: 0.03 nM

Same assay, conditions: read-out: AChE inhibiting activity IC50

Question: With `COc1ccc2c(c1)CN(CCC1CCN(Cc3ccoc3)CC1)C(=O)O2` [Example 44] as the molecule, how does the IC50 read?
Answer: 5.04 nM

Question: Which IC50 does the source give for `O=c1[nH]c2c([N+](=O)[O-])cccc2c(=O)n1CCC1CCN(CC2OCCO2)CC1` [Example 68] here?
Answer: 220 nM

Question: `O=C(c1ccccc1)C1CC(=O)N(CCC2CCN(Cc3ccccc3)CC2)C1` (centres unmarked) [Example 13, 1-[2-{4-[(1-Benzyl)piperidyl]}ethyl]-4-benzoylpyrrolidin-2-one hydrochloride] was tested. Which IC50 did it give?
Answer: 20.3 nM

Question: Which IC50 does the source give for `O=C1CCCc2cccnc2N1CCC1CCN(Cc2ccccc2)CC1` [Example 20] here?
Answer: 69.1 nM

Question: For `COc1ccc2c(c1)CN(CCC1CCN(CC3OCCO3)CC1)C(=O)O2` [Example 5, 3-{2-[1-(1,3-Dioxolan-2-ylmethyl)}-4-piperidine]ethyl}-6-methoxy-2H-3,4-dihydro-1,3-benzoxazin-2-one hydrochloride], which IC50 is on record?
Answer: 49.5 nM
